This is an account of results in patent publication US6153740A, “cDNA encoding nucleoside transporter” (University of Alberta, priority 1997, dated 2000).

Molecules are shown by their SMILES.

In data set [1] the test system is human erythrocyte es transporter. The conditions noted are these: Young and Jarvis, 1983; Paterson et al; cited from earlier work.
The next data set relates to ei transporters. The conditions noted are these: Paterson et al, 1991; cited from earlier work.
For data set [2], the target named is T1, CNT1 (Rattus norvegicus, UniProt Q62674).
T1 sequence (Q62674 1-648): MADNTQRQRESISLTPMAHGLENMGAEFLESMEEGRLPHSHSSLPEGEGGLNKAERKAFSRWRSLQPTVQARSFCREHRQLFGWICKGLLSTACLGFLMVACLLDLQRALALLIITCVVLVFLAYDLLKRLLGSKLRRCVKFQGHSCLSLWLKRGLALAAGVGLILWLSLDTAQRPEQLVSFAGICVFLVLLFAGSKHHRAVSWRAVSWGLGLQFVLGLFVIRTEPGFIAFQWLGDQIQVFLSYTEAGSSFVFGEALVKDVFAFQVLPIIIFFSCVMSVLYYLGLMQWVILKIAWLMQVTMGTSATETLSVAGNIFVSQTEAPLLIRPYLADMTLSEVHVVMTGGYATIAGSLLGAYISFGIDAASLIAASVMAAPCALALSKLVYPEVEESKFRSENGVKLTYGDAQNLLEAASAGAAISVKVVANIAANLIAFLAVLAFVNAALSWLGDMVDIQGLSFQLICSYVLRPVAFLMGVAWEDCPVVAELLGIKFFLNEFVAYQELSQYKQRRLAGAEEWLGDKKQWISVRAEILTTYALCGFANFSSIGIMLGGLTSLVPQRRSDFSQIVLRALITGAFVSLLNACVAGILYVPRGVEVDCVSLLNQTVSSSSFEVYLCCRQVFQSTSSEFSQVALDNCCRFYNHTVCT
Nature of the data set: inhibition of CNT1-mediated nucleoside (uridine, AZT, ddC) transport in Xenopus oocytes. Format: cell-based. The conditions noted are these: 1 μM.

Data set [3] concerns the target T2, hCNT1a (Homo sapiens, UniProt O00337).
T2 sequence (O00337 with tags, fused parts or gaps E34G/INS140V): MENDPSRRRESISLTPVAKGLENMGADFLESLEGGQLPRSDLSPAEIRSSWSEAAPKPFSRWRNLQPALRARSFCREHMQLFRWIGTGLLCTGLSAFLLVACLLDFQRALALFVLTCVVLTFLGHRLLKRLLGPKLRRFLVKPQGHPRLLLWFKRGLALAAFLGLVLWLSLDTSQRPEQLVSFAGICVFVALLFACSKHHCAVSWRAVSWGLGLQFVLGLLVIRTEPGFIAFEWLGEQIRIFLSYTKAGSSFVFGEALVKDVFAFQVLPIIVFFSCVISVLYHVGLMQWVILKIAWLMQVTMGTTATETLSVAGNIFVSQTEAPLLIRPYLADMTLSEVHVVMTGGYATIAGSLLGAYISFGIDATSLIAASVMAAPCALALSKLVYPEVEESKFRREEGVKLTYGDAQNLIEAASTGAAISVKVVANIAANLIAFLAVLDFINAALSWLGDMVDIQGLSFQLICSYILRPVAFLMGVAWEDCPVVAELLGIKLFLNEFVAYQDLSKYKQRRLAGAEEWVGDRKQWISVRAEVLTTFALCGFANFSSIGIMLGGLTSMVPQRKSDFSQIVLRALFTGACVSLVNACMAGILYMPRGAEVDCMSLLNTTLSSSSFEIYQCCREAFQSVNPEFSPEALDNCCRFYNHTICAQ
As to the kind of experiment: cell-based.
Procedure: (§3) H2 O, water-injected oocytes. Fluxes were not corrected for the contribution of endogenous transport activity.
(§4) Defolliculated oocytes (Huang et al. 1993) were injected with either 10 nl of water containing 10 ng RNA transcript or 10 nl of water alone. Nucleoside uptake was measured after 3 d and was traced with the respective [^3 H] or [^14 C]nucleoside (Moravek Biochemicals)(5 μC 3H/ml, 1 μC 14C/ml). […] The transport buffer for adenosine influx experiments contained 1 μM deoxycoformycin to inhibit adenosine deaminase activity. Results are presented as means ±SEM for 10-12 individual oocytes. Kinetic constants were determined by non-linear regression analysis (ENZFITTER, Elsevier-Biosoft). Each experiment was performed at least twice on different batches of oocytes.

Data set [4] addresses T1, CNT1. Nature of the data set: uptake/influx of radiolabelled nucleosides in Xenopus oocytes injected with pQQH1 (rat CNT1) cRNA. Type of data set: cell-based. The conditions noted are these: for mediated influx, rCNT1 (adenosine/deoxyadenosine comparison): separate experiment, inset FIG. 14A. How it is done:
(§1) Oocytes were injected with water or RNA transcribed in vitro from the nucleoside transporter cDNA (pQQH1). […] For panels c and d, the permeant concentration was 10 μM and competing nonradioactive nucleosides were present at a concentration of 1 mM.
Oocytes injected with water or in vitro transcribed RNA from pQQH1 were incubated with radiolabeled permanent (10 μM) for 30 min (open columns) or 1 h (hatched columns) at 20° C. Each value represents the mean ±S. E. of 8-10 ooctyes.
(§2) Remaining template was removed by digestion with RQ1 DNase. Oocytes were treated with collagenase to remove follicular layers (Huang et al, 1993) and injected with 10 ng of pQQH1 cRNA or water. […] At the end of the incubation, extracellular label was removed by six rapid ice-cold washes in the appropriate transport buffer. Individual oocytes were dissolved in 5% SDS for quantitation of oocyte-associated ^3 H by liquid scintillation counting (LS 6000 IC, Beckman).

The target in data set [5] is T2, hCNT1a. As to the kind of experiment: influx of radiolabelled nucleosides in Xenopus oocytes injected with hCNT1a RNA transcript. The conditions noted are these: for mediated influx, hCNT1a (adenosine/deoxyadenosine comparison): separate experiment, inset FIG. 14A.
Procedure: Oocytes were injected with either water alone or water containing hCNT1a RNA transcript.
Oocytes were injected with either water alone (.tangle-solidup.) or water containing hCNT1a RNA transcript (.smallcircle.,.circle-solid.).
Adenosine, guanosine and AZT (10 μM) fluxes were compared in the same batch of oocytes injected either with water (open columns) or with RNA transcript for hCNT1a or rCNT1 (hatched and solid columns, respectively).
as §4
The subject of the next data set is kidney. The conditions noted are these: humans, mice (adenosine also rat); cited from earlier work.
For data set [6], the target named is T1, CNT1. The conditions noted are these: Fang et al, 1996, Yao et al. unpublished; cited from earlier work.
Data set [7] relates to isolated perfused rat kidneys. The conditions noted are these: secreted at higher concentrations; Trimble and Coulson, 1984; cited from earlier work.
Data set [8] addresses T1, CNT1. The conditions noted are these: Yao et al. unpublished; read-out: inhibition constant, recombinant rCNT1; cited from earlier work.
For data set [9], the target named is T2, hCNT1a. As to the kind of experiment: inhibition of hCNT1a-mediated influx of [3H]uridine in Xenopus oocytes.
Procedure: as §3, §4
The target of data set [10] is T1, CNT1. As to the kind of experiment: inhibition of CNT1-mediated nucleoside (uridine, AZT, ddC) transport in Xenopus oocytes. Type of data set: cell-based. The conditions noted are these: adenosine, thymidine, cytidine, uridine>>guanosine, inosine. The method, then:
as §1, §2

A further data set addresses T3, hCNT1b (Homo sapiens, UniProt O00337).
T3 sequence (O00337 2-649 V189I/N409S/D521N): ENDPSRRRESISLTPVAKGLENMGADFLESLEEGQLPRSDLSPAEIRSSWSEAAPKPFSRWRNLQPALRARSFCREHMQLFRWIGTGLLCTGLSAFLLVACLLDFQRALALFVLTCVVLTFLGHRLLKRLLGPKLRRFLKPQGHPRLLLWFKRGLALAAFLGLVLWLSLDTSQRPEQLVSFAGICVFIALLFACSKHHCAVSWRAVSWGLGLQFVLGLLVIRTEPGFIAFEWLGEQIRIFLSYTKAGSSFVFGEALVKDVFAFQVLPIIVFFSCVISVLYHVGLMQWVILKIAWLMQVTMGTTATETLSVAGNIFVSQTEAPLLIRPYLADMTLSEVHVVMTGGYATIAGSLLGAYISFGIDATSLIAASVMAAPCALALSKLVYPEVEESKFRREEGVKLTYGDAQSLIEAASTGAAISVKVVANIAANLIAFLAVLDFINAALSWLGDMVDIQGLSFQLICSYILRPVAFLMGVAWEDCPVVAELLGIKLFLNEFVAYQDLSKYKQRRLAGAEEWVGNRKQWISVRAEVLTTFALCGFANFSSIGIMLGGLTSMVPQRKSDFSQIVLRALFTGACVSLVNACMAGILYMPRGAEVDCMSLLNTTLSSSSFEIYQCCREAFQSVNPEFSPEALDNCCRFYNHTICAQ
As to the kind of experiment: inhibition of hCNT1b-mediated influx of [3H]uridine in Xenopus oocytes. Type of data set: cell-based. The conditions noted are these: uridine 10 μM, competitor 1 mM (FIG. 12B). From the text:
H2 O, water-injected oocytes.

Turning to `O=[N+]([O-])c1ccc(CSc2ncnc3c2ncn3[C@@H]2O[C@H](CO)[C@@H](O)[C@H]2O)cc1` [NBMPR, 6-[(4-nitrobenzyl)thio]-9-p-D-ribofuranosylpurine], the “inhibition of equilibrative nucleoside transport in human erythrocytes, concentrations” value in [1] was “namomolar concentrations”. Further, the “sensitivity of ei systems to inhibition” value with ei transporters is recorded as “low (micromolar) sensitivity”. Besides, on CNT1 [2], the “effect on CNT1 transport” value was “unaffected”.

The compound `Nc1ncnc2c1ncn2[C@H]1C[C@H](O)[C@@H](CO)O1` [deoxyadenosine, 2'-deoxyadenosine] showed a Ki at hCNT1a [3] of 46 ± 14 µM. Further, at CNT1 [4] (10 μM), the “mediated influx, rCNT1 (adenosine/deoxyadenosine comparison)” value is on record as 0.11±0.02 pmol/oocyte.10 min^-1. On hCNT1a [5], the “permeant quality, hCNT1” value is “poor hCNT1 permeants”. In addition, the “mediated influx, hCNT1a (adenosine/deoxyadenosine comparison)” value on hCNT1a [5] (10 μM) is recorded as 0.14±0.02 pmol/oocyte.10 min^-1. In the data set on kidney, the net renal handling entry was “net renal secretion”.

Consider `Nc1ncnc2c1ncn2[C@@H]1O[C@H](CO)[C@@H](O)[C@H]1O` [adenosine], for which, at CNT1 [6], the “Vmax relative to uridine, recombinant rCNT1” value was “lower Vmax” and the “affinity of transport by recombinant rCNT1” value is “same high affinity as uridine”. In addition, at CNT1 [4] (10 μM), the “uridine:adenosine flux ratio, rCNT1” value stood at 110 and the “mediated influx, rCNT1 (adenosine/deoxyadenosine comparison)” value was 0.70±0.0 pmol/oocyte.10 min^-1. Besides, on CNT1 [4] (10 μM permeant (FIG. 14)), the “mediated flux, rCNT1” value is 0.51±0.05 pmol/oocyte.10 min^-1. Besides, the “plasma concentration at which adenosine is reabsorbed” value in data set [7] was “less than 50 μM”. Moreover, the Ki at CNT1 [8] was 29 µM. On hCNT1a [5] (10 μM), the “uridine:adenosine flux ratio, hCNT1a” value was 75 and the “mediated influx, hCNT1a (adenosine/deoxyadenosine comparison)” value was found to be 0.60±0.01 pmol/oocyte.10 min^-1. In addition, the “mediated flux, hCNT1a” value on hCNT1a [5] (10 μM permeant (FIG. 14)) turned out to be 0.49±0.03 pmol/oocyte.10 min^-1. Also, the Ki at hCNT1a [9] came out at 50 ± 11 µM. Further, the “inhibition of uridine fluxes, hCNT1a” value on hCNT1a [9] (uridine 10 μM, competitor 1 mM (FIG. 12A), guanosine also in FIG. 13) is listed as “inhibited”. Further, the “selective inhibition of uridine and thymidine fluxes (rCNT1)” value at CNT1 [10] is recorded as “selective inhibition”. The net renal handling entry in the data set with kidney was “net renal reabsorption”. The “inhibition of uridine fluxes, hCNT1b” value on hCNT1b is recorded as “inhibited”.
